For series [1], the system named is BOT-2 human breast cancer cells. Kind of series: Cytotoxicity by visual inspection / MTT assay, 100% cell kill at serial dilutions. The conditions noted are these: for Activity: Table of Side Chains, scale not given; for activity compared to mitoxantrone: cytotoxicity assay. The format is cell-based. The source says:
(§1) The MTT assay was used to determine levels of 100% and 50% cell kill. In addition to activity against cancer mitoxantrone has been used to treat certain forms of multiple sclerosis and is approved by the FDA to treat both cancer and multiple sclerosis. Mitoxantrone also has significant immune modulatory effects and could be used to treat severe forms of collagen vascular disorders.
Testing of compounds in the MTT assay. In a 72 well plate, the BOT-2 human breast cancer cells were allowed to grow for 24 hours. Following this growth time, dilutions of the drug was added. The cells were checked for percentage of cell death at 24 and 48 hours. This checking was done by visual appearance of the cells. Rounded up floating cells or disrupted cells indicating cell death. Cells flattened and attached to the bottom of the tissue culture flask indicated alive and healthy cells. At 144 hours MTT.
Visual inspection assay: BOT-2 cancer cells after treatment with an anthracycline or cytotoxic anthraquinone compounds. The dead cells become rounded, detach and float. The compound is initially dissolved in 0.1 N hydrochloric acid or dilute acetic acid. Serial 1 to 4 dilutions of the compound are made with buffered tissue culture media and pipetted into a wells of a 72 well microtiter plate. Determination is made of 100% cell death at 24, 48 and 144 hours for each well. Controls are always run concurrently. […] Previous work has determined if 100% kill is noted there is never re-growth of the tumor cells.
A solution of 1,4,5,8-Tetrakis-[2-(2-aminoethyl)amino]anthraquinone dihydrochloride (T-4) was made of 10 mg/ml in de-ionized water. This was then diluted to 1 mg/ml. This solution was filtered to sterilize. Seventy micro liters (70 μl) of this was mixed with tissue culture media and added to 70 well plate. Two hundred ten (210) cells per well were previously grown for 24 hrs prior to adding the test drug. The test compounds were added in serial 1 to 3 dilutions. 1,4,5,8-Tetrakis-[2-(2-aminoethyl)amino]anthraquinone (T-4) was tested against mitoxantrone, epirubicin, and bis-1,4-aminoethylamino-5,8-dihydroxyanthraquinone. There was also a control in which no drug was added. […] The end point for positive cell kill was 100% cell death.
A solution of 1,4,5,8-Tetrakis-N,N-dimethylaminoethylaminoanthraquinone dihydrochloride was made of 10 mg/ml in de-ionized water. This was then diluted to 1 mg/ml. This solution was filtered to sterilize. 70 μl of this was mixed with tissue culture media and added to 70 well plate. Two hundred ten (210) cells per well were previously grown for 24 hrs prior to adding the test drug. The test compounds were added in serial 1 to 3 dilutions. The 1,4,5,8-Tetrakis-N,N-dimethylaminoethylaminoanthraquinone was tested against mitoxantrone (bis-1,4-hydroxyethylaminoethylamino-5,8-dihydroxyanthraquinone dihydrochloride), epirubicin, and 1,4-bis-[(aminoethyl)amino]anthraquinone. There was also a control in which no drug was added. […] The end point for positive cell kill was 100% cell death.

Series [2] deals with BOT-2 breast cancer cell line. Kind of series: Doublet combinations with other chemotherapy drugs, cell kill. The format is cell-based, human. The conditions noted are these: other drugs included docetaxel, gemcitabine and topotecan.
Text: as §1, with “The synthesized compounds tested were compared to mitoxantrone (Novantrone®) when tested in a tissue culture system using the BOT-2 breast cancer cell line. The” for “The”, “disorders. The compounds described in the present disclosure would be expected to have similar activities at a greater therapeutic efficacy.” for “disorders.”
These other drugs included docetaxel, gemcitabine and topotecan.

Structures can show the parent of a compound that is named as a salt.

For `CN(C)CCNc1ccc(NCCO)c2c1C(=O)c1c(NCCN(C)C)ccc(NCCN(C)C)c1C2=O` [T-2,2,2,3], the Activity in series [1] worked out at 5.

In the case of `NCCNc1ccc(NCCN)c2c1C(=O)c1c(NCCN)ccc(NCCN)c1C2=O` [Designation T-4, 1,4,5,8-Tetrakis-[2-(2-aminoethyl)amino]anthraquinone], in series [1], the Activity was 5 and the “activity compared to mitoxantrone” value was “more active than mitoxantrone”. The “100% cell kill went out to (number of 1:4 dilutions)” value in series [1] (starting solution 1 mg/ml, end point 100% cell death) was 5 1:4 dilutions.

In the case of `CN(C)CCNc1ccc(NCCN(C)C)c2c1C(=O)c1c(NCCN(C)C)ccc(NCCN(C)C)c1C2=O` [Designation T-2, 1,4,5,8-Tetrakis-[(2-N,N-dimethylaminoethyl)amino]anthraquinone], in series [1], the Activity amounted to 5 and the “activity compared to mitoxantrone” value was “more active than mitoxantrone”.

For the molecule `O=C1c2c(O)ccc(O)c2C(=O)c2c(NCCNCCO)ccc(NCCNCCO)c21` [mitoxantrone, bis-1,4-hydroxyethylaminoethylamino-5,8-dihydroxyanthraquinone dihydrochloride, reference compound], in series [2], the “cell kill in doublet combination with other chemotherapy drugs” value was “extent of synergism was not seen”.

In the case of `O=C1c2c(NCCNCCO)ccc(NCCNCCO)c2C(=O)c2c(NCCNCCO)ccc(NCCNCCO)c21` [Designation T-1], in series [1], the Activity is 5 and the “activity compared to mitoxantrone” value was “more active than mitoxantrone”.

Turning to “tetrakis-1,4,5,8-hydroxyalkylaminoethylaminoanthraquinone dihydrochloride”, the “cell kill in doublet combination with other chemotherapy drugs” value in series [2] is “synergistic cell kill (greater than additive)”.

`CN(C)c1ccc(NCCCl)c2c1C(=O)c1c(N(C)C)ccc(N(C)C)c1C2=O` [T-2,2,2,8, 1,4,5-Tris-(N,N-dimethylamino),8-(2-chloroethylamino)anthraquinone]: the “activity compared to mitoxantrone” value in series [1] was “more active than mitoxantrone”.

In series [1], `CNCCN(C)c1ccc(NCCNCCO)c2c1C(=O)c1c(N(C)CCNC)ccc(N(C)CCNC)c1C2=O` [T-2,2,2,1] registered an Activity of 5.

Turning to `O=C1c2c(NCCO)ccc(NCCO)c2C(=O)c2c(NCCO)ccc(NCCO)c21` [Designation T-3, 1,4,5,8-Tetrakis-[(2-hydroxyethyl)amino]anthraquinone], the Activity in series [1] turned out to be 1. Further, in series [1] (end point 100% cell death, 24, 48 and 144 hrs), the “activity in cytotoxicity assay” value is “inactive”. The “100% cell kill went out to (number of dilutions)” value in series [1] (starting solution 1 mg/ml, end point 100% cell death, at 24, 48 and 144 hrs) was 1 dilutions.

For the origin of these results see US8420861B2, “Anti-tumor compounds derived from 1,4,5,8-tetrachloroanthraquinone” (priority 2007, dated 2013).
